# Source: patent US8652785B2, “Method of screening a modulator of endothelial NO synthase comprising the use of heme binding protein 1” (Sanofi, priority 2008, dated 2014)
# Where two headings read alike, the source gives them in different places.
# Experiments:
# eNOS promoter = assay: eNOS-transcription test (eNOS-promoter luciferase reporter cell line EA.csr03); format: cell-based; settings: Homo sapiens; EA.csr03 cells; read-out: Cellular EC50 in the eNOS-transcription test
# Experimental: The EA.csr03 cells are cells of a stable eNOS-promoter luciferase cell line. It was obtained by transfection of EA.hy926 cells with a firefly luciferase reporter construct, with a 3.5 kb fragment of the eNOS-promoter added. Cultivation of these cells was carried out with IMDM with GlutaMAX™ I supplemented with 100 U/ml penicillin, 100 μg/ml streptomycin, 10% FCS and 0.4 mg/ml geneticin as selection antibiotic. The EA.hy926 cells are a stable human cell line, which was obtained by fusion of HUVEC with the human […] cell line A549. This cell line is characterized by expression of specific endothelial cell markers, e.g. the “van-Willebrand factor”. The cells used are an original culture of Cora Jean Edgell of passage 32. The cells were cultivated in IMDM with GlutaMAX™ I supplemented with 100 U/ml penicillin, 100 μg/ml streptomycin, HAT Hybri-Max™ medium additive (hypoxanthine, aminopterin and thymidine) and Biotect protective medium.
# For transcription test for eNOS promoter activation, 20 000 cells per well of the reporter cell line EA.csr03 were sown in a white 96-well cell culture plate. After 24 hours, various dilutions of the substance in cell culture medium were prepared starting from DMSO stock solutions and were preincubated for 10 min at 37° C. on a water bath. Then these incubation media (100 μl/well) were added to the cells. After incubation for 18 hours, the cells were washed twice with DPBS (100 μl/well) and luciferase lysis buffer (50 μl/well) was added. After 10 min, the solubilized luciferase-substrate luciferin (100 μl/well) was added to the cell lysates. During the luciferase-catalyzed oxidation of luciferin to oxyluciferin there is release of chemiluminescence. […] The light units released were measured in the Genios microplate reader from Tecan Deutschland (Crailsheim, Germany).
# [1] = molecular target: T1, TBP-related Protein 1 (TBPL1) (Homo sapiens, UniProt P62380); assay: Protein microarray (ProtoArray) binding, TBPL1
# T1 construct: purchased Invitrogen, Karlsruhe, Germany ProtoArrays v3.0
# T1 sequence (P62380 1-186): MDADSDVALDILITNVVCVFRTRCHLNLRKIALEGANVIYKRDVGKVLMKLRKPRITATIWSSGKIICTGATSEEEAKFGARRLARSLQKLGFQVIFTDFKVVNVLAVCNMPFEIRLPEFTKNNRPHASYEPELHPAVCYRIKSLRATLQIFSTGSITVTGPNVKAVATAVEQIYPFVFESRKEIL
# Experimental: (§1) The protein-microarray experiments were carried out using ProtoArrays® v3.0 (Invitrogen, Karlsruhe, Germany). These were nitrocellulose-coated glass plates, on which approx. 5000 recombinant human proteins, in duplicates, were immobilized.
# (§2) In the first step the microarrays were incubated for one hour at 4° C. with a MOPS blocking buffer with 0.1% (v/v) Igepal and 1% (w/v) BSA. Then the arrays with the biotin-labeled eNOS transcription enhancers A012 and A013, sometimes in the presence of the unlabeled substance 9257, were incubated at 4° C. for 90 min without shaking, in various test conditions in a MOPS sample buffer with 1% (v/v) Igepal and 1% (w/v) BSA.
# (§3) After washing three times, in each case for 1 min, with pure MOPS sample buffer on ice, they were incubated for 30 min with IRDye®680-labeled streptavidin diluted 1/1000 in MOPS sample buffer away from the light, also on ice. IRDye®680- and IRDye®800-labeled secondary antibodies, which recognize the constant Fc-part of the primary antibodies, were used exclusively for the immunodetection of certain proteins. […] The advantage of this wavelength range is the very good signal-to-noise ratio on account of low intrinsic fluorescence. Detection employs the ODYSSEY™ from LI-COR Biosciences (Bad Homburg, Germany). […]
# (§4) These labeling (A) and competition tests (B) were evaluated by quantifying the fluorescence signals.
# [2] = molecular target: T2, Cytidinemonophosphate-N-acetylneuraminic acid-synthetase (CMAS) (Homo sapiens, UniProt Q8NFW8); assay: Protein microarray (ProtoArray) binding, CMAS
# T2 construct: purchased Invitrogen, Karlsruhe, Germany ProtoArrays v3.0
# T2 sequence (Q8NFW8 whole entry): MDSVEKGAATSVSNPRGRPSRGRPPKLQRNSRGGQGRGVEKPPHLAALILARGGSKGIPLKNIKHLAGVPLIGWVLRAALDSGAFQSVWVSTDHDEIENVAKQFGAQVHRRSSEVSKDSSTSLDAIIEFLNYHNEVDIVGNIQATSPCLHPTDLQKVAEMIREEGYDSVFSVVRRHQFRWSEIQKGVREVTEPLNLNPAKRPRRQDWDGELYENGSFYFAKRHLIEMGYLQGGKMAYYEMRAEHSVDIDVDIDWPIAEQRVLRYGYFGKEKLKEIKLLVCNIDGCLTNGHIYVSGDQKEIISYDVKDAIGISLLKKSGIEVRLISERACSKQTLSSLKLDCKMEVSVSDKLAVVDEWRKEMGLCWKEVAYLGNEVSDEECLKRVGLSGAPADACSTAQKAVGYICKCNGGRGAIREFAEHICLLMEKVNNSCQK
# Experimental: as §1, §2, §3, §4
# [3] = molecular target: T3, Transcription factor EB (TFEB) (Homo sapiens, UniProt P19484); assay: Protein microarray (ProtoArray) binding, TFEB
# T3 construct: purchased Invitrogen, Karlsruhe, Germany ProtoArrays v3.0
# T3 sequence (P19484 1-476): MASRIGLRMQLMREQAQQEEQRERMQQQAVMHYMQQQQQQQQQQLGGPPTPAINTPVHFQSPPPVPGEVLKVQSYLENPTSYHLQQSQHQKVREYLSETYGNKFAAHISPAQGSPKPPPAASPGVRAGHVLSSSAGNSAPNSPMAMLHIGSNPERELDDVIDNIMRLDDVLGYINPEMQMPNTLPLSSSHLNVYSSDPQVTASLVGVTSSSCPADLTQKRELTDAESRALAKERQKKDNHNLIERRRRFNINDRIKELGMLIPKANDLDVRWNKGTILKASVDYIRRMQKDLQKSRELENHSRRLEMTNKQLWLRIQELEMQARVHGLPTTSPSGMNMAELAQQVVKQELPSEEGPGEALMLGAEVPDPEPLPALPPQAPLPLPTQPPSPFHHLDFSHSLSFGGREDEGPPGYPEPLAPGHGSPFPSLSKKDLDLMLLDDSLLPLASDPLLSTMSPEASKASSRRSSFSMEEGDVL
# Experimental: as §1, §2, §3, §4
# [4] = molecular target: T4, Mitogen-activated protein kinase 7 (MAPK7) (Homo sapiens, UniProt Q13164); assay: Protein microarray (ProtoArray) binding, MAPK7
# T4 construct: purchased Invitrogen, Karlsruhe, Germany ProtoArrays v3.0
# T4 sequence (Q13164 whole entry): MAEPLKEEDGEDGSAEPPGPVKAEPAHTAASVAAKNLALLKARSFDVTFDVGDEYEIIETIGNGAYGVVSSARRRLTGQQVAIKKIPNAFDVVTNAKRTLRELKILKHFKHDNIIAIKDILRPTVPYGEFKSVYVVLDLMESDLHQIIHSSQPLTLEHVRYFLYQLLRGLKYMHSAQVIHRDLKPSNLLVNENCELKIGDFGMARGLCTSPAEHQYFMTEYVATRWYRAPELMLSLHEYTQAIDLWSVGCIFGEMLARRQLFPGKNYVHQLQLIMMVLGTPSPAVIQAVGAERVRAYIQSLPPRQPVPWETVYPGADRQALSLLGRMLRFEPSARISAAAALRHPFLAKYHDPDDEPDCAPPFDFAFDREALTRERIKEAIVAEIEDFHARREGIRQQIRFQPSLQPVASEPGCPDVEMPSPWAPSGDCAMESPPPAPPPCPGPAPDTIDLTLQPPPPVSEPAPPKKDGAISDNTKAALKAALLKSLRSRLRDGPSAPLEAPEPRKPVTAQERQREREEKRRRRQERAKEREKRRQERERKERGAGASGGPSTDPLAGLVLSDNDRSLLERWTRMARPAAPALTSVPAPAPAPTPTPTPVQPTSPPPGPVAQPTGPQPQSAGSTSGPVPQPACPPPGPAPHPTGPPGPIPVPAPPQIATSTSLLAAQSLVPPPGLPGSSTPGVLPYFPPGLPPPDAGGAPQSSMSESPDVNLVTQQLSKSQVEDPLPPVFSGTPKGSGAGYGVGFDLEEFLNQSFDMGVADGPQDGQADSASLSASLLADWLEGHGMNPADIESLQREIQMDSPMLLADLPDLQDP
# Experimental: as §1, §2, §3, §4
# [5] = molecular target: T5, AMP-activated protein kinase, catalytic subunit alpha 1 (PRKAA1) (Homo sapiens, UniProt Q13131); assay: Protein microarray (ProtoArray) binding, PRKAA1
# T5 construct: purchased Invitrogen, Karlsruhe, Germany ProtoArrays v3.0
# T5 sequence (Q13131 whole entry): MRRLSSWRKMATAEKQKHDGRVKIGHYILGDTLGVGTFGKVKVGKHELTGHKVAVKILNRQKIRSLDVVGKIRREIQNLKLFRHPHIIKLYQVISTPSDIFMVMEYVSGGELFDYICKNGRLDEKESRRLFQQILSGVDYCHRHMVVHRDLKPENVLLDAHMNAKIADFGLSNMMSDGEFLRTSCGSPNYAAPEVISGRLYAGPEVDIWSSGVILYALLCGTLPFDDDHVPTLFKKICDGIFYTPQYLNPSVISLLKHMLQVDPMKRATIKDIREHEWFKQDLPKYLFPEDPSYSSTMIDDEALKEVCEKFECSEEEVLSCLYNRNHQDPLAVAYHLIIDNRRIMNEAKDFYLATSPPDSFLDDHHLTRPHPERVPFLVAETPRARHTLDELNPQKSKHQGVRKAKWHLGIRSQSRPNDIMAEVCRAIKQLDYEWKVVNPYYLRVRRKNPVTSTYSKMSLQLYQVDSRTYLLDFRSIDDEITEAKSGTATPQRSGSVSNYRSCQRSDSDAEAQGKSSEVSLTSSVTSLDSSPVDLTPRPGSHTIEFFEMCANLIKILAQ
# Experimental: as §1, §2, §3, §4
# [6] = molecular target: T6, Phosphoserine aminotransferase 1 (PSAT1) (Homo sapiens, UniProt Q9Y617); assay: Protein microarray (ProtoArray) binding, PSAT1
# T6 construct: purchased Invitrogen, Karlsruhe, Germany ProtoArrays v3.0
# T6 sequence (Q9Y617 1-370): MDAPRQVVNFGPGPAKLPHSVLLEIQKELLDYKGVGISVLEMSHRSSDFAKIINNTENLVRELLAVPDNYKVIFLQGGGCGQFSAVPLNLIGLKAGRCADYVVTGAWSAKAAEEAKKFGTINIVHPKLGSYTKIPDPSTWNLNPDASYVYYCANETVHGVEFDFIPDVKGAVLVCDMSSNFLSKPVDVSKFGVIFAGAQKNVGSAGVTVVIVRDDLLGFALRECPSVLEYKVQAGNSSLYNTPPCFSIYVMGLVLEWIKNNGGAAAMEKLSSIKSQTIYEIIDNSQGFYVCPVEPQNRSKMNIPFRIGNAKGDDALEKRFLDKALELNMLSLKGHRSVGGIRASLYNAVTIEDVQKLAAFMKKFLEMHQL
# Experimental: as §1, §2, §3, §4
# [7] = tested on: recombinant human proteins on ProtoArrays v3.0; assay: Protein microarray (ProtoArray) labeling and competition, qualitative; format: binding; settings: substance 100 μM
# Experimental: as §1, §2
# as §3, with “Germany). With this instrument it is possible to detect both emission wavelengths on one membrane simultaneously.” for “Germany).”
# human Hexahis-HEBP1 = molecular target: T7, human Hexahis-HEBP1 (Homo sapiens, UniProt Q9NRV9); assay: Binding studies by quenching of tryptophan fluorescence
# T7 construct: Hexahis (6xHis) (N); made in house; host or cells: E. coli BL21 Star (DE3)
# T7 sequence (Q9NRV9 1-189): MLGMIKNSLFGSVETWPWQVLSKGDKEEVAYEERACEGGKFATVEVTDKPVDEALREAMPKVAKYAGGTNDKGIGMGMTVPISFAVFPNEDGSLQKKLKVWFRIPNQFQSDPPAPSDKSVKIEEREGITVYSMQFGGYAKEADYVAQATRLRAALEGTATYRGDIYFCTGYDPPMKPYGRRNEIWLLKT
# Source text: For carrying out binding studies with human HEBP1, it is possible to utilize the intrinsic fluorescence of the tryptophan residues at λ=340 nm, using an excitation wavelength of λ=295 nm. The resultant fluorescence can be “quenched” by binding of porphyrins in spatial proximity to the tryptophan residues. This leads to a decrease of intrinsic fluorescence, which therefore provides a measure for the binding of a ligand. In order to optimize the experimental conditions for these quench measurements it was first necessary to evaluate the spectroscopic properties of the recombinant Hexahis-HEBP1.
# Next, studies of the binding of hemin and protoporphyrin IX (PPIX) to human Hexahis-HEBP1 in the presence of eNOS transcription enhancers by tryptophan quenching were carried out. Binding studies with human HEBP1 are carried out using the intrinsic fluorescence of tryptophan residues that are contained. The fluorescence occurring at λ=340 nm after excitation with a wavelength of λ=295 nm can be “quenched” through the binding of porphyrins in proximity to the tryptophan residues. The measured fluorescence decreases as a function of the concentration of the ligands. Using nonlinear regression, it is possible to calculate the binding parameters.
# Hemin and PPIX at concentrations from 30 nM to 10 μM were added to a buffered HEBP1 solution (500 nM) and after incubation for 10 min the tryptophan fluorescence was measured (FIG. 3). It was not possible to use higher porphyrin concentrations owing to the low solubility in aqueous systems.
# The influence of the eNOS-transcription enhancers on tryptophan quenching by hemin was investigated next. In the experiments the recombinant human HEBP1 at a concentration of 500 nM was preincubated on ice for 30 min with the eNOS-substance 9257 versus DMSO-control in a binding buffer (pH 7.4) of HEPES (20 mM), sodium chloride (100 mM) and DTT (1 mM). Black, 96-well plates were used as the reaction vessel. Then hemin or protoporphyrin IX was added at varying concentrations through addition of the 200-fold concentrated DMSO stock solution and incubated for 10 min at room temperature. Finally, the tryptophan fluorescence was measured after previous optimization at λexc=295 nm and λem=340 nm in the Safire^2 microplate reader (Tecan Deutschland, Crailsheim, Germany).
# First we investigated whether substance 9257 can quench the tryptophan fluorescence of HEBP1. […] Therefore the binding of 9257 was investigated indirectly through competition with hemin. For this, HEBP1 (500 nM) was preincubated with 9257 (10 μM) on ice, versus DMSO-control. After 30 min the hemin was added at varying concentrations of 0.1-10 μM and it was incubated at room temperature for a further 10 min before measuring the tryptophan fluorescence (FIG. 4).
# [8] = B: A012 (100 μM) in the presence of unlabeled substance 9257 (25 μM)
# [9] = 0.5 μM HEBP1, ligand 30 nM to 10 μM, 10 min, read-out: IC50 of tryptophan fluorescence quenching
molecule,measurement,setting,value
O=C(CCCC[C@@H]1SC[C@@H]2NC(=O)N[C@@H]21)NCCCCCC(=O)NCCOCCOc1ccc(C(=O)N[C@H]2CCCc3ccccc3C2)cc1 [A012],EC50,eNOS promoter,1200 nM
same,Fluorescence intensity A,[1]; A: A012 (100 μM),10788
same,Fluorescence intensity B,[1]; [8],4083
same,Fluorescence intensity A,[2]; A: A012 (100 μM),10411
same,Fluorescence intensity B,[2]; [8],5028
same,Fluorescence intensity A,[3]; A: A012 (100 μM),4987
same,Fluorescence intensity B,[3]; [8],1333
same,Fluorescence intensity A,[4]; A: A012 (100 μM),4775
same,Fluorescence intensity B,[4]; [8],1135
same,Fluorescence intensity A,[5]; A: A012 (100 μM),3791
same,Fluorescence intensity B,[5]; [8],1206
same,Fluorescence intensity A,[6]; A: A012 (100 μM),3151
same,Fluorescence intensity B,[6]; [8],2269
same,labeling of protein duplicates on the microarray,[7],readily discernible
O=C(CCCC[C@@H]1SC[C@@H]2NC(=O)N[C@@H]21)NCCCCCC(=O)NCCOCCOc1ccc(C(=O)N[C@@H]2CCCc3ccccc3C2)cc1 [A013],EC50,eNOS promoter,> 10000 nM
same,labeling of protein duplicates on the microarray,[7],no binding of the substance to the proteins
O=C(NC1Cc2ccccc2C1)c1ccc(F)cc1 [AVE9488],EC50,eNOS promoter,3000 nM
"C=CC1=C(C)c2cc3[nH]c(cc4nc(cc5[nH]c(cc1n2)c(C)c5CCC(=O)O)C(CCC(=O)O)=C4C)c(C)c3C=C [PPIX, protoporphyrin IX]",IC50,human Hexahis-HEBP1; [9],13000 nM
hemin,IC50,human Hexahis-HEBP1; [9],3000 nM
same,IC50,"human Hexahis-HEBP1; HEBP1 500 nM, DMSO-control, hemin 0.1-10 μM, read-out: IC50 of the hemin binding curve, DMSO-control",1100 nM
same,potency of hemin relative to PPIX,human Hexahis-HEBP1; from IC50 values,10 times
